Results taken from patent US20250197485A1, “Anti-ED-A Antibodies for the Treatment of Pulmonary Hypertension” (Universitätsklinikum Jena, priority 2022, published 2025).

What was measured:
[1] = system: MCT-induced PH; assay: Histological evaluation of lung tissue damage (sum-score) in mouse model of MCT-induced PH; format: in vivo, C57BL/6 mice; settings: MAC p=0.020; F8 IgG p=0.005; KSF IgG p=0.907
From the text: PH was induced in C57BL/6 mice (bodyweight: 25-30 g). The animals were obtained from ZET facility (Zentale Experimentelle Tierhaltung) of the University Hospital Jena (UKJ, Jena, Germany). Prior to PH induction, mice were allowed to acclimatize for at least 7 days with ad libitum access to food and water as well as controlled light/dark cycles. 41 animals were investigated divided into the following five experimental groups: • 1) sham induced controls (n=7) • 2) MCT induced PH (n=12) • 3) MCT induced PH+MAC (n=6) • 4) MCT induced PH+F8 IgG (n=8) • 5) MCT induced PH+KSF IgG (n=8) For PH induction, the Monocrotaline (MCT, Carl Roth, Germany) method was used. The sham induced controls were injected with 30 μl NaCl not containing MCT at day 1 (single dose; intraperitoneally, i.p.). […] The other 4 experimental groups were injected with MCT to induce PH (single dose; intraperitoneally, i.p.; 60 mg/kg body weight; volume 30 μl). Animals in the MCT induced PH+MAC group received the drug (Macitentan, Actelion Pharmaceuticals Ltd.) from day 14 to day 28 (once daily; per os; 15 mg/kg body weight). Animals in the MCT induced PH+F8 IgG group received F8 IgG 3 times on day 14, 16 and 18 (intravenously, i.v.; 195 μg/injection; volume 200 μl). Similarly, animals in the MCT induced PH+KSF IgG group received KSF IgG 3 times on day 14, 16 and 18 (intravenously, i.v.; 195 μg/injection; volume 120 μl). Microscopic evaluation to assess histopathological lung tissue damage was performed using H&E as well as Sirius Red stained lung tissue sections according to a defined sum-score (between 0 and 12; maximum score value=highest level of tissue damage) integrating certain histological alterations frequently occurring in PH: percentage of atelectasis area, percentage of emphysema area, degree of media hypertrophy of peribronchial arteries, presence of perivascular cellular edema of peribronchial arteries, and degree of media hypertrophy of small arteries. Statistical analyses were performed using IBM SPSS statistical software, version 28.0 (IBM SPSS Statistics for Windows. Armonk, NY, USA). Data are expressed as mean±standard deviation. Kruskal-Wallis and Mann-Whitney-U test were used to test for significant differences between the different groups. A p-value<0.05 as statistically significant.

[2] = system: MCT-induced PH; assay: Right heart catheterization (RVPsys) in mouse model of MCT-induced PH; format: in vivo, C57BL/6 mice; settings: day 28; F8 IgG 195 μg i.v. day 14, 16, 18 (p=0.010); MAC 15 mg/kg per os once daily day 14-28 (n.s.)
From the text: PH was induced in C57BL/6 mice (bodyweight: 25-30 g). The animals were obtained from ZET facility (Zentale Experimentelle Tierhaltung) of the University Hospital Jena (UKJ, Jena, Germany). Prior to PH induction, mice were allowed to acclimatize for at least 7 days with ad libitum access to food and water as well as controlled light/dark cycles. 41 animals were investigated divided into the following five experimental groups: • 1) sham induced controls (n=7) • 2) MCT induced PH (n=12) • 3) MCT induced PH+MAC (n=6) • 4) MCT induced PH+F8 IgG (n=8) • 5) MCT induced PH+KSF IgG (n=8)
For PH induction, the Monocrotaline (MCT, Carl Roth, Germany) method was used.
The sham induced controls were injected with 30 μl NaCl not containing MCT at day 1 (single dose; intraperitoneally, i.p.). […] The other 4 experimental groups were injected with MCT to induce PH (single dose; intraperitoneally, i.p.; 60 mg/kg body weight; volume 30 μl). Animals in the MCT induced PH+MAC group received the drug (Macitentan, Actelion Pharmaceuticals Ltd.) from day 14 to day 28 (once daily; per os; 15 mg/kg body weight). Animals in the MCT induced PH+F8 IgG group received F8 IgG 3 times on day 14, 16 and 18 (intravenously, i.v.; 195 μg/injection; volume 200 μl). Similarly, animals in the MCT induced PH+KSF IgG group received KSF IgG 3 times on day 14, 16 and 18 (intravenously, i.v.; 195 μg/injection; volume 120 μl).
On day 28 after MCT injection, mice of all experimental groups were deeply anesthetized with a single dose of 100 mg/kg body weight ketamine and 10 mg/kg body weight Xylazin in approximately 60 μl each administered i.p.
Right heart catheterization using a 1.4 F micro conductance pressure-volume catheter (Model SPR-839; Millar Instruments Inc; PowerLab system, ADInstruments Ltd., Oxford, UK) was performed via the right vena jugularis interna to measure the systolic right ventricular pressure and thereby verify the success of the experimental setting. Mice were then sacrificed in deep anesthesia and analgesia to carry out cardiac blood collection after thoracotomy and to harvest the organs.
Statistical analyses were performed using IBM SPSS statistical software, version 28.0 (IBM SPSS Statistics for Windows. Armonk, NY, USA). Data are expressed as mean±standard deviation. Kruskal-Wallis and Mann-Whitney-U test were used to test for significant differences between the different groups. A p-value<0.05 as statistically significant.

Molecule | histopathological lung tissue damage (sum-score 0 to 12) compared to the MCT-induced PH group without treatment [1] | attenuation in RVPsys compared to the MCT-induced PH group without treatment (positive control) [2]
CCCNS(=O)(=O)Nc1ncnc(OCCOc2ncc(Br)cn2)c1-c1ccc(Br)cc1 [MAC, Macitentan, reference compound] | significantly reduced | not significant
KSF IgG: Negative control chimaeric antibody specific for hen egg lysozyme, an irrelevant antigen; heavy chain SEQ ID NO: 15, light chain SEQ ID NO: 16 [reference compound] | No reduction | 
